Experimental data reported in patent publication US8629251B2, “Specific detection and quantification of phosphatidic acid using an Arabidopsis trigalactosyldiacylglycerol-4 (TGD4) protein” (Board of Trustees of Michigan State University, priority 2008, dated 2014).

Legend:
[1] = target: T1, Arabidopsis TGD2, DsRed-TGD2C with deletion of the 25-mer minimal domain (DR-Δ25, residues 201-225 deleted) (Arabidopsis thaliana, UniProt Q9LTR2, DEL201-225); assay: Liposome-association assay, minimal domain deletion DR-Δ25; type: binding
T1 construct: made in house; host or cells: Escherichia coli BL21 (DE3)
T1 sequence (Q9LTR2 other isoform, or with tags, fused parts or gaps DEL201-225): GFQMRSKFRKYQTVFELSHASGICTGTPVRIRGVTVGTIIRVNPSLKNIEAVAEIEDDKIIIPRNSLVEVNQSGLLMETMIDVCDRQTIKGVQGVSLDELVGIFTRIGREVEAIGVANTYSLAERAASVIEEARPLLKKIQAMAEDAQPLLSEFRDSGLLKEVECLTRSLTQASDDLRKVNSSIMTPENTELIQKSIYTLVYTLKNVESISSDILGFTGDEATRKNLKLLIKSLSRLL
Method: The liposome association assay was performed as previously reported. (31). Briefly, lipids (dioleoyl-phosphatidylcholine, DOPC or dioleoyl-PA, DOPA) were incubated in TBS (50 mM Tris-HCl, pH 7; 0.1 M NaCl) at 37° C. for an hour followed by vigorous vortexing for 5 min. The liposomes were precipitated at 20,000 g and washed twice with ice-cold TBS.
Liposomes (200 μg) were mixed with purified DsRed-TGD2 fusion protein and TBS to make a final 100 μL solution. The mixture was incubated at 30° C. for 30 min and washed twice with ice-cold TBS by centrifugation at 20,000 g at 4° C. The liposome pellet mixed with sample buffer was analyzed by SDS-PAGE (28). Immuno-detection of the His-tagged protein was accomplished using the above mentioned Penta-His antibody at 1:15,000 and the anti mouse antibody at 1:75,000 dilution.
The protein band was visualized by chemiluminescent detection kit from Sigma. The autoradiography film was scanned, distinct protein bands were quantified using computer software Multi Gauge V3.0 (Fujifilm USA, Valhalla, N.Y.) and resulted data were plotted and analyzed by OriginPro8 (Origin lab corporation, Northampton, Mass.).

[2] = target: T2, Arabidopsis TGD2, N-terminally truncated TGD2-dTMD-His (from Gly-119) (Arabidopsis thaliana, UniProt Q9LTR2); assay: Membrane lipid binding assay, TGD2-dTMD-His; settings: lipid membranes, FIG. 8A
T2 sequence (Q9LTR2 119-381): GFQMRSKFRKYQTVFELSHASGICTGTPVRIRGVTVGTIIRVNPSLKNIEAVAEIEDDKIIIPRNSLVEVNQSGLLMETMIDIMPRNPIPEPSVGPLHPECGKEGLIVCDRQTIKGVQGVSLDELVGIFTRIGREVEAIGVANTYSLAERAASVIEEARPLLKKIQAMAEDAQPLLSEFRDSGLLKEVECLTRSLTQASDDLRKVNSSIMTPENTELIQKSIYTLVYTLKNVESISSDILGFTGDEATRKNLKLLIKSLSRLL
Method: Commercially available membrane strips prespotted with lipids were purchased. (Echelon Biosciences, Salt Lake City, Utah). Prokaryotic phosphatidylcholine and PA were also purchased (Avanti Polar Lipids). Prokaryotic monogalactolipid, digalactolipid, sulfolipid, and phosphatidylglycerol were purified from Synechocystis PCC6803 by TLC of lipid extracts. Eukaryotic monogalactolipid and digalactolipid was isolated from pea leaves.
Approximately 5 μg of lipids were spotted onto a Hybond-C membrane (Amersham Pharmacia Biosciences). The membranes were first blocked with 3% BSA in TBST (10 mM Tris-HCl, pH 8.0/150 mM NaCl/0.1% Tween 20) for 1 h and incubated in 0.5 μg/ml TGD2 protein solution in the blocking buffer at 4° C. overnight. The blots were washed five times with TBST and soaked in 3% BSA in TBST with a Penta-His mouse monoclonal antibody (Qiagen) at a 1:1,000 dilution at room temperature overnight. The membranes were washed twice with TBST and soaked in 3% BSA in TBST with alkaline phosphatase-conjugated anti-mouse antibody (Jackson ImmunoResearch) at a 1:5,000 dilution for 1 hour at room temperature. After washing with TBST twice, the protein was detected by using the Immun-Star AP detection system (Bio-Rad).

[3] = target: T3, Arabidopsis TGD4, DsRED-TGD4-His, full-length TGD4 1-479 (SEQ ID NO: 132) (Arabidopsis thaliana, UniProt Q9M903); assay: Protein-lipid overlay assay, DsRED-TGD4-His; type: binding; settings: commercial phospholipid membrane, FIG. 18A
T3 sequence (Q9M903 1-479): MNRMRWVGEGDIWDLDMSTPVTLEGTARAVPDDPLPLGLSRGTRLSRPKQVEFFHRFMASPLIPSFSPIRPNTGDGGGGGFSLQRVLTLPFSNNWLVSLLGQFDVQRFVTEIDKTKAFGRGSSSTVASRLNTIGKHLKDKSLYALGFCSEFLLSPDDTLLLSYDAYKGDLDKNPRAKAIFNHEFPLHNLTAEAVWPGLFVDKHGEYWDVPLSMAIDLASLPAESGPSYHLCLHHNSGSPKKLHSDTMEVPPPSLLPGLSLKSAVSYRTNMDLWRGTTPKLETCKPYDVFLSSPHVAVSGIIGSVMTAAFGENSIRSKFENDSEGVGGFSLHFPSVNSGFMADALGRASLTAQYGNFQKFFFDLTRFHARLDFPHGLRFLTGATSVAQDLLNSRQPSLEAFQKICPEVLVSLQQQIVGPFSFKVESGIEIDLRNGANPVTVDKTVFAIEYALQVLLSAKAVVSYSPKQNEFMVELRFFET
Method: Protein-Lipid Overlay Assay:
The protein-lipid overlay assay was modified from (Awai et al., 2006, Lu and Benning, 2009). Phosphoinositol-4,5-bisphosphate PIP2) lipid strips were purchased from Echelon Biosciences (Salt Lake City, Utah). Lipids spotted onto membranes were purchased from Avanti Polar Lipids (Alabaster, Al.) as well as Larodan Fine Chemicals (Malmo, Sweden). Lipids (10 nmol) were suspended in 20 μl spotting buffer (250 μl chloroform, 500 μl methanol, 200 μl 50 mM HCl, 2 μl 1% (w/v) Ponseau S (Sigma, St. Louis, Mo.)) and spotted onto Amersham Hybond-C Extra membranes (GE Healthcare, Piscataway, N.J.) followed by drying for 1 hour in a fume hood. The lipid membranes were then blocked in 3% (w/v) bovine serum albumin (BSA) in TBST buffer (TBS with 0.25% (v/v) Tween 20) for 2 hours at room temperature. Purified DsRED-TGD4-His fusion proteins were added at 1 μg/ml final concentration and incubated overnight at 4° C. followed by washing 3 times in TBST. Lipid membranes were then incubated with 1:2000 diluted His antibody (Sigma) in blocking buffer for 2 hours at room temperature followed by 2 washes with TBST. The membranes were processed for immunoblotting as described below.

[4] = mixed PA/PC liposomes, FIGS. 5E and 5F

CCCCCCCC/C=C\CCCCCCCC(=O)OC[C@H](COP(=O)(O)O)OC(=O)CCCCCCC/C=C\CCCCCCCC [PA, phosphatidic acid]
residual PA binding activity ([1]; PA liposomes): retains residual binding activity, albeit with significantly lower affinity | Hill number, PA binding [1, 4]: 7.3 | Kd, PA binding [1, 4]: 53.47 mol % | binding of lipids [2]: bound | binding to lipids on membranes [3]: specifically bind
